The results in this text go back to patent publication US7754740B2, “1H-indole-3-carboxylic acid derivatives and their use as PPAR agonists” (Merck Patent GmbH, priority 2005, dated 2010).

The target in the test is T1, chimeric protein PPARγ-Gal4 (Homo sapiens, UniProt P37231).
T1 construct: Gal4 (yeast transcription factor); expressed in transfected cells; host or cells: CV-1 cells (monkey kidney cells)
T1 sequence (P37231 238-503 limits assumed): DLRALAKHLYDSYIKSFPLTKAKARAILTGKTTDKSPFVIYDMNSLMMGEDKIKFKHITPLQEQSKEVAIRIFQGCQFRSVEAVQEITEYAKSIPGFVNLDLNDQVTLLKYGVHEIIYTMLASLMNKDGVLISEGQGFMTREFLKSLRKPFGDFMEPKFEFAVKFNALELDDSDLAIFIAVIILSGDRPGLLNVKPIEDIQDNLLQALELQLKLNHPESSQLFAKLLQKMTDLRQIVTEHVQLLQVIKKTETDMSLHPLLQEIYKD
Put plainly: PPARγ-Gal4 transactivation (luciferase reporter) test in cotransfected CV-1 cells. It counts as cell-based. The method, then:
The measurement of the PPAR activation was performed according to a technique described by Lehmann et al. (J. Biol. Chem., 270, (1995),
CV-1 cells (monkey kidney cells) are cotransfected with an expression vector for the chimeric protein PPARγ-Gal4 and with a “reporter” plasmid that allows expression of the luciferase gene placed under the control of a promoter comprising Gal4 response elements.
The cells are seeded in 96-well microplates and cotransfected using a commercial reagent with the reporter plasmid (pG5-tk-pGL3) and the expression vector for the chimeric protein (PPARγ-Gal4). After incubation for 4 hours, whole culture medium (comprising 10% foetal calf serum) is added to the wells. After 24 hours, the medium is removed and replaced with whole medium comprising the test products. The products are left in contact with the cells for 18 hours. The cells are then lysed and the luciferase activity is measured using a luminometer. A PPARγ activation factor can then be calculated by means of the activation of the expression of the reporter gene induced by the product (relative to the control cells that have received no product).
In the absence of the PPARγ ligand binding domain (vector expressing Gal4 alone), the luciferase activity measured in the presence of an agonist is zero.
The following transactivation result was obtained with a concentration of 50 μM on PPARγ.
The transactivation test using the expression of a chimeric protein Gal-4-PPARγ makes it possible to determine also whether an agonist functions as a “full” agonist or as a “partial” agonist in this system.
An agonist is “partial” in this system if it induces a weaker response, i.e. it has lower efficacy, than rosiglitazone, which is a “full” agonist. In concrete terms, in our system, the transactivation obtained at the plateau with a partial agonist will be between 20% and 50% of the maximum response (efficacy) at the plateau of rosiglitazone.
(In general: In a reporter assay the amount or activity of a reporter protein is the signal.)

On to `CCOC(=O)c1c(C)n(CCOC)c2cc(CCCC3CCCC3)c(OCCCC(=O)O)cc12` [Example 31, ethyl 5-(3-carboxypropoxy)-6-(3-cyclopentylpropyl)-1-(2-methoxyethyl)-2-methyl-1H-indole-3-carboxylate], for which, under “Gal4-PPARγ transactivation test, CV-1 cells”, the “Concentration to reach the maximum stimulation of the PPARγ chimeric protein” value amounted to 1 µM. Besides, where the note is “transactivation at the plateau as % of the maximum response (efficacy) of rosiglitazone, CV-1 cells, read-out: Maximum stimulation of the PPARγ chimeric protein obtained with rosiglitazone”, the Emax was found to be 24%.

Take `CCOC(=O)c1c(C)n(Cc2ccccc2)c2cc(-c3cccnc3)c(OCCCC(=O)O)cc12` [Example 4, Ethyl-benzyl-5-(3-carboxypropoxy)-2-methyl-6-pyrid-3-yl-1H-indole-3-carboxylate]: the “Activation factor of the chimeric protein PPARγ-Gal4” value (50 μM, CV-1 cells (monkey kidney cells), 18 hours contact, luciferase reporter, relative to control cells without product (= 1)) was 17.
